The results in this text go back to patent publication EP0714604A1, “A composition having insecticidal and acaricidal properties” (MITSUI TOATSU CHEMICALS, INCORPORATED, priority 1994, dated 1996).

Type in all cases: in vivo
For one series, the system named is Kanzawa spider mite. The series is described as follows: Test 5: effect on the Kanzawa spider mite living on potted kidney bean plants (mite counts). The note with it: Compound No.1 25 ppm, 51 before treatment. From the text:
Potted kidney bean plants in the first true leaf stage were inoculated with female adults of the Kanzawa spider mite and allowed to stand in a greenhouse for about a week. After leaves infested with Kanzawa spider mites were marked, the kidney bean plants were sprayed with a diluted fluid of 10% Anniverse Emulsion (Compound No.1), a macrolide compound (i.e., 0.6% Avermectin Emulsion or 1% Milbenock Emulsion) or a mixture thereof to such an extent that the fluid dripped from their leaves. The number of Kanzawa spider mites living on the marked leaves was counted 2, 7, 12, 16 and 27 days after the treatment.

Series [1] concerns resistant strain of the greenhouse whitefly. Description: Test 6: effect on a resistant strain of the greenhouse whitefly (eggs on leaf sections, LC50). The note with it: one-day-old eggs on kidney bean leaf sections sprayed, 25°C, twelve days after the treatment. The protocol: About 2 cm square sections of kidney bean leaves on which one-day-old eggs of the greenhouse whitefly had been deposited were placed on wetted absorbent cotton, sprayed with 4 ml each of various dilutions of 10% Anniverse Emulsion (Compound No.1), 0.6% Avermectin Emulsion or a mixture thereof by means of a tower sprayer, and maintained in a thermostatic chamber kept at 25°C. Twelve days after the treatment, the numbers of surviving insects, dead insects, unhatched eggs and escaping insects were examined. Thus, the survival rates at various concentrations were calculated and the LC₅₀ value (in ppm) was determined therefrom.

The test system of the next series is green peach aphid. The series is described as follows: Test 7: effect on the green peach aphid living on eggplants (population density). The note with it: Compound No.1 25 ppm, before treatment = 100. How it is done: After leaves naturally infested with green peach aphids were marked, eggplants were sprayed with a diluted fluid of 10% Anniverse Emulsion (Compound No.1), 0.6% Avermectin Emulsion or a mixture thereof to such an extent that the fluid dripped from their leaves. The number of green peach aphids living on the marked leaves was counted 2, 7, 14, 21 and 28 days after the treatment, and the corrected population density index was calculated according to the equation given below. Corrected population density index =((Number of insects after treatment in treated division)/(Number of insects before treatment in treated division))/((Number of insects after treatment in untreated division)/(Number of insects before treatment in untreated division))x 100 [formula]

For series [2], the system named is resistant strain of the Kanzawa spider mite. Description: Test 3: effect on a resistant strain of the Kanzawa spider mite, Milbenock Emulsion as macrolide (LC50). Conditions: 1% Milbenock Emulsion as macrolide, eleven days after the treatment. How it is done: A test was carried out in the same manner as in Test 1, except that, in place of 0.6% Avermectin Emulsion, 1% Milbenock Emulsion was used as the macrolide compound.

Series [3] has the same test system. Description: Test 2: effect on a resistant strain of the Kanzawa spider mite (leaf section spray, LC50). Conditions: eggs on kidney bean leaf sections sprayed, 25°C, eleven days after the treatment. How it is done: (§1) About 2 cm square sections of kidney bean leaves were placed on wetted absorbent cotton. Then, 7 female adults of the Kanzawa spider mite were inoculated on each leaf section and allowed to deposit eggs. After 24 hours, the adult mites were removed, 4 ml each of various dilutions of 10% Anniverse Emulsion (Compound No.1), 20% Trebon Emulsion (Compound No.2), 0.6% Avermectin Emulsion or a mixture thereof were sprayed by means of a tower sprayer, and the leaf sections were maintained in a thermostatic chamber kept at 25°C. Eleven days after the treatment, the numbers of surviving mites, dead mites, unhatched eggs and escaping mites were examined. Thus, the survival rates at various concentrations were calculated and the LC₅₀ value (in ppm) was determined therefrom.
(§2) In order to evaluate the synergistic effect of each compound of the general formula (1) and the macrolide compound, the combined toxicity index was calculated from the LC₅₀ values of the respective compounds in the same manner as in Test 1.

Series [4] deals with sensitive strain of the Kanzawa spider mite. The series is described as follows: Test 1: effect on a sensitive strain of the Kanzawa spider mite (leaf section spray, LC50). Conditions: eggs on kidney bean leaf sections sprayed, 25°C, eleven days after the treatment. How it is done: as §1, with “No.1),” for “No.1), 20% Trebon Emulsion (Compound No.2),”
In order to evaluate the synergistic effect of the compound of the general formula (1) and the macrolide compound, the combined toxicity index was calculated from the LC₅₀ values of the respective compounds according to the equation of Y.P. Sun et al. (J. Econ. Ent., 53(5), 887, 1960).
The equation of Y.P. Sun et al. for calculating the combined toxicity index is more fully explained below. […]

The subject of series [5] is second-instar larvae of the diamond-back moth. The series is described as follows: Test 8: effect on the diamondback moth (residual activity on sprayed potted cabbages). The note with it: dead larvae 2 days after feeding. From the text:
Potted cabbages were sprayed with a diluted fluid of an emulsion of a compound of the general formula (1) [i.e., 10% Anniverse Emulsion (Compound No.1), 20% Trebon Emulsion (Compound No.2), an emulsion of Compound No.3, an emulsion of Compound No.4, or Shironen Emulsion (Compound No.5)], 0.6% Avermectin Emulsion or a mixture thereof to such an extent that the fluid dripped from their leaves. Subsequently, cabbage leaves were sampled at predetermined intervals and fed to second-instar larvae of the diamond-back moth. Then, the number of dead larvae was examined after 2 days from the feeding.

Series [6] deals with resistant strain of the citrus red mite. Description: Test 4: effect on a resistant strain of the citrus red mite (leaf section spray, LC50). Conditions: eggs on mandarin tree leaf sections sprayed, 25°C, eleven days after the treatment. How it is done: as §1, with “mandarin tree” for “kidney bean”, “citrus red” for “Kanzawa spider”, “No.1),” for “No.1), 20% Trebon Emulsion (Compound No.2),”

Series [7] has as its system resistant strain (selected by Compound No.1) of the Kanzawa spider mite. The series is described as follows: Test 9: effect on a resistant strain (selected by Compound No.1) of the Kanzawa spider mite (LC50). Conditions: eggs on kidney bean leaf sections sprayed, 25°C, eight days after the treatment. The protocol: as §1, with “removed,” for “removed, 4 ml each of”, “an emulsion of a compound of the general formula (1) [i.e.,” for “10% Anniverse Emulsion (Compound No.1),”, “an emulsion of Compound No.3, an emulsion of Compound No.4, or Shironen Emulsion (Compound No.5)], 1% Milbenock” for “0.6% Avermectin”, “Eight” for “Eleven”
as §2

The mark [8] stands for this setting: compound of formula (1) alone 50 ppm, leaves sampled 2 days after treatment.
The mark [9] stands for this setting: compound of formula (1) alone 50 ppm, leaves sampled 7 days after treatment.
[10] abbreviates: compound of formula (1) alone 50 ppm, leaves sampled 14 days after treatment.
Where [11] appears, read: compound of formula (1) alone 50 ppm, leaves sampled 21 days after treatment.
[12] abbreviates: compound of formula (1) alone 50 ppm, leaves sampled 28 days after treatment.
Setting [13] is: compound of formula (1) alone 50 ppm, leaves sampled 35 days after treatment.

Each structure is given as a SMILES string.

Regarding `CC(C)(COCc1cccc(Oc2ccccc2)c1)c1ccc(OC(F)(F)Br)cc1` [Compound No.1], the “Number of living mites” value is listed as 0 in the series with Kanzawa spider mite (2 days after treatment); 0 with Kanzawa spider mite (7 days after treatment); 0 with Kanzawa spider mite (12 days after treatment); 27 in the series on Kanzawa spider mite (16 days after treatment); 102 in the series with Kanzawa spider mite (27 days after treatment). In addition, the LC₅₀ value was determined as 630 ppm in series [1]; 11.5 ppm in series [2]; 11.5 ppm in series [3]; 1.13 ppm in series [4]; 2000 ppm in series [6]. Besides, the “Corrected population density index” value in the series with green peach aphid (2 days after treatment) is recorded as 0; with green peach aphid (7 days after treatment), 0.3; in the series on green peach aphid (14 days after treatment) it was 2.5; with green peach aphid (21 days after treatment), 42.5; in the series with green peach aphid (28 days after treatment) it was 96.5. The Death rate in series [5] (compound of formula (1) alone 25 ppm, leaves sampled 2 days after treatment) was determined as 90%; in series [5] (compound of formula (1) alone 25 ppm, leaves sampled 7 days after treatment), 10%; in [5] (compound of formula (1) alone 25 ppm, leaves sampled 14 days after treatment), 0%; in series [5] (compound of formula (1) alone 25 ppm, leaves sampled 21 days after treatment) it was 0%.
Regarding `CCOc1ccc(C(C)(C)COCc2cccc(Oc3ccccc3)c2)cc1` [Compound No.2], the results for the LC₅₀ value in [3] and in series [7] were 162 ppm and 375 ppm, respectively. The Death rate is given as 38% in series [5] (setting [8]), 15% in [5] (setting [9]), 25% in [5] (setting [10]) and 11% in series [5] (setting [11]).
With `CCOc1ccc(C(C)(C)CCCc2cccc(Oc3ccccc3)c2)cc1` [Compound No.3], the Death rate in series [5] (setting [8]) is on record as 70%; in series [5] (setting [9]), 45%; in series [5] (setting [10]) it was 15%; in [5] (setting [11]), 40%; in [5] (setting [12]) it was 35%; in [5] (setting [13]), 5%. Besides, the LC₅₀ value in series [7] is given as 519 ppm.
Regarding `CCOc1ccc(C(C)(C)CCCc2ccc(F)c(Oc3ccccc3)c2)cc1` [Compound No.4], the Death rate in series [5] (setting [8]) stood at 94%; in [5] (setting [9]), 65%; in series [5] (setting [10]), 60%; in series [5] (setting [11]), 10%; in series [5] (setting [12]), 0%; in [5] (setting [13]) it was 0%. Besides, the LC₅₀ value in series [7] was 94 ppm.
Consider `CCOc1ccc([Si](C)(C)CCCc2ccc(F)c(Oc3ccccc3)c2)cc1` [Compound No.5], for which the Death rate was 95% in [5] (setting [8]); 73% in series [5] (setting [9]); 50% in series [5] (setting [10]); 15% in series [5] (setting [11]); 0% in series [5] (setting [12]); 0% in [5] (setting [13]). Also, in series [7], the LC₅₀ value is 1150 ppm.
